Source: patent US20150307846A1, “GROWTH FACTOR COCKTAIL TO ENHANCE OSTEOGENIC DIFFERENTIATION OF MESENCHYMAL CELLS” (University of Pennsylvania, priority 2012, published 2015)

Legend:
Assay type in all cases: cell-based
[1] = test system: human periosteum derived cells (hPDCs); experiment: Gene expression of bone markers in hPDCs in 2D culture (Taqman PCR); settings: for iBSP mRNA levels: at the used concentrations (Ca 6 mM, Pi 4 mM)
Protocol: Same experimental design as in A. C) Identification of factors involved in osteoblast maturation. hPDCs were treated with OM and TGFβ1 for 6 days, followed by stimulation with GM (negative control), GM containing six factors or GM supplement with six minus one factor for 4 days. The factors are ascorbic acid (Asc. Ac., 57 μM), TNFα (50 ng/ml), IL6 (10 ng/ml), EGF (20 ng/ml), Ca (6 mM) and Pi (4 mM). To evaluate osteoblast maturation, gene expression of RUNX2, OSX, DLX5, iBSP, OC and RANKL is measured with Taqman PCR. […] D) Gene expression of osteoblast markers in hPDCs treated with OM and TGFβ1 for one week followed by GM supplemented with a growth factor mix (GF) containing ascorbic acid (57 μM), EGF (20 ng/ml), IL6 (10 ng/ml), Ca (6 mM), and Pi (4 mM) (“GF+C6P4”) or the same mix with reduced Ca (3 mM) and Pi (2 mM) ions (“GF+C3P2”). Gene expression is expressed as fold increase as compared to the GM condition. (n=3, error bars: standard deviations, *p≦00.05, Mann-Whitney U test). E) Gene expression of osteoblast markers in hPDCs treated with OM/TGFβ1 for 10 days, or with GM supplemented with ascorbic acid, EGF, IL6, C3P2 for 10 days (“EGF/IL6/C3P2”), or sequential stimulation with OM/TGFβ1 for 6 days followed by GM supplemented with ascorbic acid, EGF, IL6, C3P2 (“EGF/IL6/C3P2”) for 4 days. Gene expression is expressed as fold increase as compared to hPDCs cultured in OM/TGFβ1 (n=3, error bars: standard deviations, *p≦00.05, Mann-Whitney U test).
Cell culture. Periosteum was harvested from four patients (male/female/age) and periosteal cells were enzymatically released from the matrix. Tissue culture plastic adherent cells were expanded in DMEM medium supplemented with 10% fetal bovine serum as described previously (6). For in vitro osteogenic differentiation assays, passage 6 to passage 9 hPDCs (pool of four different donors) were seeded at 3000 cells/cm^2 in either 96-well plates to assess proliferation and alkaline phosphatase activity or in the middle eight wells of a 24-well plate for quantifying gene expression.
Medium was changed every other day. Supplemental factors were TNFα, IL6 (R&D Systems, USA), TGFβ1 (Stem Cell Research, USA), Ascorbic Acid (Sigma,USA), Ca and Pi (SigmaUSA). Calcium and phosphate ion working solutions were prepared as described in (7).
Quantitative PCR. Complementary DNA (cDNA) was obtained by reverse transcription of […] of total RNA with Oligo (dT)20 as primer (Superscript Ill; Invitrogen, Merelbeke, Belgium). Sybr Green PCR was performed in 10 pl reaction in a Rotor-Gene-Q (Qiagen) with following protocol: 95° C. for 3 seconds, 60° C. for 20 seconds. Primer sequences for specific Sybr green PCR was performed with human specific primers (Table 5). Taqman PCR primer/probe combinations (Applied Biosystems) were used in the in vitro osteogenesis assays.
Statistical Analysis. Experiments were carried out in triplicate. The error bars represent the standard error of the mean when cells from multiple donors are used. Standard deviations are shown when experiments are performed with a hPDC cell pool (n=3). Statistical comparison between experimental conditions was performed with a Mann-Whitney U test. A p-value ≦0.05 was considered as being statistically significant.

[2] = test system: human periosteum derived cells (hPDCs); experiment: Alkaline phosphatase activity / ALP staining in hPDCs
Protocol: (§1) FIG. 8: A) Identification of factors that drive proliferation of hPDCs. A cell pool of hPDCs was either treated with growth medium (GM, negative control), medium containing eight factors (all factors) or medium containing eight minus one factor for 8 days. The factors are osteogenic medium (OM), calcium ions (Ca, 6 mM), phosphate ions (Pi, 4 mM), TNFα (50 ng/ml), IL6 (10 ng/ml), Wnt3A (50 ng/ml), EGF (20 ng/ml), and TGFβ1 (10 ng/ml). Proliferation is expressed as population doublings and was measured after 8 days after stimulation (n=3, error bars: standard deviation). The horizontal line is a reference line set on the proliferation in the “all factor” condition. B) Identification of factors that drive alkaline phosphatase activity in hPDCs. The percentage alkaline positive cells is used as a metric for early osteoblast differentiation.
FIG. 9: Gene expression of early (A) and late (B) bone markers in hPDCs treated with GM, OM or GM/OM supplemented with a growth factor mix (GF) containing TNFα, EGF, TGFβ1 and IL6. […]
Cell culture. […] For in vitro osteogenic differentiation assays, passage 6 to passage 9 hPDCs (pool of four different donors) were seeded at 3000 cells/cm^2 in either 96-well plates to assess proliferation and alkaline phosphatase activity or in the middle eight wells of a 24-well plate for quantifying gene expression. […]

[3] = test system: human periosteum derived cells (hPDCs); experiment: Proliferation of hPDCs in 2D culture (population doublings); settings: 8 days, eight factors minus one
Protocol: as §1
Cell culture. Periosteum was harvested from four patients (male/female/age) and periosteal cells were enzymatically released from the matrix. […] For in vitro osteogenic differentiation assays, passage 6 to passage 9 hPDCs (pool of four different donors) were seeded at 3000 cells/cm^2 in either 96-well plates to assess proliferation and alkaline phosphatase activity or in the middle eight wells of a 24-well plate for quantifying gene expression. […]

[4] = test system: human periosteum derived cells (hPDCs); experiment: ALP/Alizarin Red staining of calcium deposits (mineralization) on hPDCs; settings: hPDCs after OM and TGFβ1 one week, then 4 days
Excerpt: FIG. 9: Gene expression of early (A) and late (B) bone markers in hPDCs treated with GM, OM or GM/OM supplemented with a growth factor mix (GF) containing TNFα, EGF, TGFβ1 and IL6. C) ALP staining of hPDCs that were stimulated with OM and TGFβ1 for one week followed by GM with one factor in the absence or presence of ascorbic acid for 2 days. D) ALP/Alizarin Red staining to stain calcium deposits on hPDCs pre-treated with OM and TGFβ1 for one week followed by GM with six minus one factors for four days in the absence or presence of ascorbic acid.
To overcome the inhibitory effect of OM on later stages of osteoblastogenesis, we considered to explore a two stage protocol wherein hPDCs were treated with OM and TGFβ1 to stimulate proliferation and ALP activity. After six days, medium was changed to growth medium supplemented with six factors (ascorbic acid, TNFα, IL6, EGF, Ca, Pi) minus one factor for 4 days. At this stage, ascorbic acid was included as a factor, because it promoted ALP activity (FIG. 9C) and mineralization (FIG. 9D) in vitro. […] Gene expression levels of RUNX2 were decreased when ascorbic acid was omitted from the mix. […] Furthermore, EGF, calcium and phosphate were required for DLX5 transcription, but at the used concentrations, calcium and phosphate decreased iBSP mRNA levels (FIG. 8C).

[5] = two stage protocol, six factors minus one, 4 days

Compound	iBSP mRNA levels [1]	role in DLX5 transcription [1, 5]	RANKL expression in medium devoid of the factor [1, 5]	also measured
[Ca] [calcium]	decreased	required		
TGFβ1: growth factor ligand, 10 ng/ml				effect on ALP activity (leave-one-out) ([2]; hPDCs, 8 days, eight factors minus one): strong inducers; effect on proliferation (leave-one-out) [3]: strong inducers
TNFα			lower levels	effect on osteogenic differentiation [1, 5]: strong inhibitor; expression levels of OSX, iBSP and OC when the factor was removed from the cocktail [1, 5]: enhanced
IL6: cytokine ligand, 10 ng/ml			lower levels	
O=C1O[C@H]([C@@H](O)CO)C(O)=C1O [ascorbic acid, reference compound]			lower levels	ALP activity (staining) ([2]; hPDCs after OM and TGFβ1 one week, then GM with factor 2 days): promoted; mineralization [4]: promoted; RUNX2 gene expression when the factor was omitted from the mix [1, 5]: decreased
phosphate	decreased	required		
